According to ChEMBL document CHEMBL1201862, “PubChem BioAssay data set” (2004):
Where a name gives a salt, the structure may show the parent alone. Blank lines part the entries; values can stand above or below the compound they belong to. The source made the active and inactive calls.

Key:
[1] = intracellular Trypanosoma cruzi inhibitors in host cells – cell-based, plate reader, cherry-pick samples, set 3, dose response (AID 651818); assay type: functional;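 further: compounds incubated with infected cells for about four days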
Paired box protein Pax-8 = Paired box protein Pax-8 (Homo sapiens, UniProt Q06710); assay: inhibitors of PAX8-driven TPO luciferase reporter, dose response, RMG-I cells, cherry-pick (AID 687027); assay type: functional, cell-based;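 further: luciferase reporter driven by Pax8 target thyroperoxidase promoter measured by SteadyGlo luminescence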
[2] = cytotoxicity in OVCAR8 ovarian cancer cells, dose response, PAX8 project, cell-based, plate reader, dry powder samples (AID 743197); assay type: functional; settings: OVCAR-8
[3] = NIH:OVCAR-3 ovarian cancer cell cytotoxicity, dose response, PAX8 inhibitor project, plate reader, dry powder samples (AID 743044); assay type: functional, cell-based
[4] = IGROV1 ovarian cancer cell cytotoxicity, dose response, PAX8 inhibitor project, plate reader, dry powder samples (AID 743043); assay type: functional, cell-based; settings: IGROV-1
[5] = target: T1, Sentrin-specific protease 1 (Homo sapiens, UniProt Q9P0U3); assay: potency of human SENP1 inhibitors, dose response, biochemical, kinetic FRET (AID 651697); assay type: functional; settings: read-out: IC50_Mean
T1 sequence (Q9P0U3 whole entry): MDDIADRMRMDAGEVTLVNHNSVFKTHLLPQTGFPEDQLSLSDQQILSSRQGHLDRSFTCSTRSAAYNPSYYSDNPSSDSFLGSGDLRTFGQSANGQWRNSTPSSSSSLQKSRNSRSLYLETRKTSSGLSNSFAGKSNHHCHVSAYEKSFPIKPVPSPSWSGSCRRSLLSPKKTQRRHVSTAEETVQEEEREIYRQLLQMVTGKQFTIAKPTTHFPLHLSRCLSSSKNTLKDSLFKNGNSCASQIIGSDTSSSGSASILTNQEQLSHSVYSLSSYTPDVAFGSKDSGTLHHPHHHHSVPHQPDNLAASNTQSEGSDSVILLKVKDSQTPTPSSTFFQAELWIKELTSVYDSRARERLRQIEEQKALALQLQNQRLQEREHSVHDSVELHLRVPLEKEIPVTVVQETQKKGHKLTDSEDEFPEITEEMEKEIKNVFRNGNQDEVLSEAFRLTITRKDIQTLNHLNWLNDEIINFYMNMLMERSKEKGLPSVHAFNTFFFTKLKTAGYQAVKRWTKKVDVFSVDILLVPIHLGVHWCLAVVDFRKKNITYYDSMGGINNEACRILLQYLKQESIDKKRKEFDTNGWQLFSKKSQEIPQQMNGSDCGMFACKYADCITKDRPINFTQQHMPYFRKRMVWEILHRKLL

[6] = target: T1, Sentrin-specific protease 1; assay: Dose response confirmation of small molecule inhibitors of the catalytic domain of the SUMO protease, SENP1 in a FRET assay.; assay type: functional; settings: read-out: IC50_Mean
[7] = HEp-2 cell cytotoxicity, dose response, cytotoxicity control for RSV inhibitor project, HTS (AID 2410); assay type: functional; settings: human respiratory syncytial virus
[8] = Luminescence Cell-Based Dose Retest to Confirm Inhibitors of Cancer Stem Cells. [Related pubchem assays (depositor defined):AID2717, AID2721]; assay type: functional; settings: Homo sapiens
[9] = target: T2, Polyadenylate-binding protein 1 (Homo sapiens, UniProt P11940); assay: PABP1 MLLE–PAM2 interaction inhibitors, dose response, miRNA deadenylation inhibitor project, biochemical, fluorescence polarization, Cy5-PAM2 peptide, secondary (AID 602260); assay type: functional; settings: read-out: IC50_Mean
[10] = target: T2, Polyadenylate-binding protein 1; assay: PABP1 MLLE–PAM2 binding inhibitor potency, dose response, biochemical, fluorescence polarization, FITC-PAM2 peptide (AID 602259); assay type: functional; settings: read-out: IC50_Mean

Chain of Paired box protein Pax-8 (Q06710 whole entry): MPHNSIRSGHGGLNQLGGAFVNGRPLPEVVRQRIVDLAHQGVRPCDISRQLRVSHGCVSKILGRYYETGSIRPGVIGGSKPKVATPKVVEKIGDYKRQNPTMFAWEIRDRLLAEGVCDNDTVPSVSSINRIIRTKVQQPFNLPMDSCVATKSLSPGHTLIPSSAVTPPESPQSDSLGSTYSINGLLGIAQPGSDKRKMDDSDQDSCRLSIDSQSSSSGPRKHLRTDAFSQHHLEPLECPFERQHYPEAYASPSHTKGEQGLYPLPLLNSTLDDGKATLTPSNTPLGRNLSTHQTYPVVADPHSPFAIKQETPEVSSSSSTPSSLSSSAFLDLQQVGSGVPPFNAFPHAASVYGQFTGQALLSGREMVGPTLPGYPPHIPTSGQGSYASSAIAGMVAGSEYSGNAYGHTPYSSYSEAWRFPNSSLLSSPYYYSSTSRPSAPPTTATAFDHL
T2 sequence (P11940 whole entry): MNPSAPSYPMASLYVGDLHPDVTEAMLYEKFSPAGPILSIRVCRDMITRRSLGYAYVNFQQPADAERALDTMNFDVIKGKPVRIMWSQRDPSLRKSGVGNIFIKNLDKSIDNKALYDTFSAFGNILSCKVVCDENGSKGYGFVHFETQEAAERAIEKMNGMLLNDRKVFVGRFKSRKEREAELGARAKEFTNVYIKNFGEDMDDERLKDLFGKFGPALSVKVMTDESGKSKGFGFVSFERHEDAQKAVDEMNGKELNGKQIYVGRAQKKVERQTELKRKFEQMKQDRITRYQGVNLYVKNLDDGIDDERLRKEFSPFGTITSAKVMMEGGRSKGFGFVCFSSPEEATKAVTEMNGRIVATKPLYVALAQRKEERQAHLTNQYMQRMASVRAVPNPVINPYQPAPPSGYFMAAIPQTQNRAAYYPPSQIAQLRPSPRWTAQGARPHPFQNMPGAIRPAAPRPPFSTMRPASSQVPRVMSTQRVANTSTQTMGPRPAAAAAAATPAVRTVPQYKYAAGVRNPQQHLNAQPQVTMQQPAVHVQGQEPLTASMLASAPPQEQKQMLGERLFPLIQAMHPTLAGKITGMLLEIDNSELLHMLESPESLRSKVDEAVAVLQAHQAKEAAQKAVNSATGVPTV

SMILES: C[C@H](CO)N1C[C@H](C)[C@H](CN(C)Cc2ccc(C(F)(F)F)cc2)Oc2ccc(NC(=O)Nc3ccc(C(F)(F)F)cc3)cc2CC1=O
AC50 [1]: 2.66 µM (active)

SMILES: COc1ccc(CN(C)C[C@H]2Oc3ccc(NC(=O)Cc4cn(C)c5ccccc45)cc3CC(=O)N([C@@H](C)CO)C[C@@H]2C)cc1
AC50 [1]: 3.08 µM (active)

SMILES: C[C@@H]1CN([C@H](C)CO)C(=O)c2cccc(NS(=O)(=O)c3ccc(F)cc3)c2O[C@@H]1CN(C)Cc1ccc(C(=O)Nc2ccccc2N)cc1
AC50 [1]: 2.86 µM (active)

SMILES: C[C@H]1CN([C@@H](C)CO)C(=O)c2cccc(NC(=O)C3CC3)c2O[C@@H]1CN(C)Cc1ccc(Oc2ccccc2)cc1
AC50 [1]: 3.64 µM (active)

SMILES: C[C@@H]1CCCCO[C@@H](CN(C)Cc2ccc(Cl)c(Cl)c2)[C@H](C)CN([C@H](C)CO)C(=O)c2cc(NC(=O)Nc3ccc(F)cc3)ccc2O1
AC50 (Paired box protein Pax-8): 5.06 µM (active)
AC50 [2]: > 70 µM (inactive)

SMILES: O=C(Nc1cccc(F)c1)N1CCCCN2[C@@H](CO)[C@@H](c3ccc(-c4ccccc4F)cc3)[C@@H]2C1
AC50 (Paired box protein Pax-8): 21.1 µM (active)
AC50 [3]: 37.6 µM (active)
AC50 [4]: 26.9 µM (active)

SMILES: C[C@@H]1CN([C@H](C)CO)S(=O)(=O)c2ccc(C#Cc3cccc(F)c3)cc2O[C@@H]1CN(C)C(=O)NC1CCCCC1
AC50 (Paired box protein Pax-8): 8.38 µM (active)
AC50 [2]: 33.6 µM (active)
AC50 [3]: 42.1 µM (active)

SMILES: C[C@H]1CN([C@@H](C)CO)C(=O)c2c(c3ccccc3n2C)-c2ccccc2CO[C@@H]1CN(C)Cc1cccc(C(F)(F)F)c1
AC50 (Paired box protein Pax-8): 9.89 µM (active)
AC50 [2]: 43.7 µM (active)
AC50 [4]: 53 µM (active)

IC50 [5]: 24.9 µM (inactive)
IC50 [6]: 20.2 µM (inactive)
SMILES: COc1ccc(C2C(C(C)=O)=C(C)N=c3s/c(=C\c4ccco4)c(=O)n32)c(OC)c1 (stereo not given)

SMILES: CN(C)c1ccc(/C=N/NC(=O)/C(O)=C\C2=NC3(CCCC3)Cc3ccccc32)cc1
CC50 [7]: 25.8 µM (active)
IC50 [5]: 10.1 µM (active)
AC50 [8]: 3.54 µM (active)
IC50 [6]: 13.2 µM (active)

IC50 [5]: 8.36 µM (active)
IC50 [9]: > 66 µM (inactive)
IC50 [10]: > 66 µM (inactive)
IC50 [6]: 8.71 µM (active)
SMILES: CN1Cc2c(N)cccc2C(c2ccccc2)C1 (stereo not given) [NOMIFENSINE MALEATE]
